From patent US20250120999A1 (priority 2022, published 2025)
Several values for one entry are separate records, joined by “and”; a condition that tells them apart may be missing. Equal values may be shown once. Marks after values point to notes of the source that are not given here.

Tests used:
[1] = test system: MPXV A29; format: binding, monkeypox virus (MPXV)
[2] = test system: MPXV A29 protein; format: binding, monkeypox virus (MPXV)
[3] = test system: MPXV A35 protein; format: binding, monkeypox virus (MPXV)
[4] = test system: SARS-CoV-2 wild-type; settings: cited from earlier work
[5] = test system: SARS-CoV-2 Delta (B.1.617.2); settings: cited from earlier work
[6] = test system: MPXV A35 protein; format: binding, monkeypox virus (MPXV); remark: listed apart in the source
[7] = test system: MPXV A29; format: binding, monkeypox virus (MPXV); remark: listed apart in the source
[8] = test system: MPXV L1R; format: binding, monkeypox virus (MPXV)

| Substance | inhibition of MPXV A29 binding to heparin surface (in words) [1] | Normalized A29 protein binding (%) [2] | ability to inhibit A29-surface-immobilized heparin interaction (in words) [2] | inhibition of MPXV A29 binding to surface-immobilized heparin [2] | Normalized A35 protein binding (%) [3] | ability to inhibit A35-surface-immobilized heparin interaction (in words) [3] | inhibition of MPXV A35 binding to surface-immobilized heparin [3] | further results |
| --- | --- | --- | --- | --- | --- | --- | --- | --- |
| 2-O-desulfated IdoA heparin [2-desulfated heparin] | weaker inhibition |  |  |  |  |  |  |  |
| 6-O-desulfated heparin [6-desulfated heparin] | weaker inhibition |  |  |  |  |  |  |  |
| N-desulfated heparin | weaker inhibition |  |  |  |  |  |  |  |
| [→3)-α-Fuc2,4S-(1→3)-α-Fuc2S-(1→3)-α-Fuc2S-(1→3)-α-Fuc-(1→]n [IbSF] |  | 5.0** % | showed the ability to inhibit | 95% and 92.4% | 24.3* % | showed the ability to inhibit | 75.8% and 77.4% | inhibitory activity against SARS-CoV-2 wild-type (in words) [4]: showed inhibitory activity; inhibitory activity against SARS-CoV-2 Delta (in words) [5]: showed inhibitory activity |
| [→3)-α-Fuc2,4S-(1→3)-α-Fuc-(1→3)-α-Fuc2S-(1→3)-α-Fuc2S-(1→]n [HfSF] |  | 8.5** % | showed the ability to inhibit |  | 23.9* % | showed the ability to inhibit |  |  |
| [→3)-α-Fuc2,4S-(1→3)-αFuc2S-(1→3)-α-Fuc2S-(1→3)-α-Fuc4S-(1→]n [LvSF] |  | 23.6* % | showed the ability to inhibit | 76.4% | 16.9* % | showed the ability to inhibit | 83.1% |  |
| [→3)-α-GalNAcX(1→4)-β-GlcA-[(3→1)Y]-(1→]n, where X=4S (80%), 6S (10%), or non-sulfated (10%), and Y=−Fuc2,4S (40%), αFuc2,4S-(1→4)-α-Fuc (30%), or α-Fuc4S (30%) [PpFucCS] |  | 13.0* % | showed the ability to inhibit | 87% | 19.0* % | showed the ability to inhibit | 89% |  |
| [→3)-β-GalNAc4,6S-(1→4)-β-GlcA-[(3→1)Y]-(1→]n, where Y=αFuc2,4S (45%), α-Fuc3,4S (35%), or α-Fuc4S (20%) [HfFucCS] |  | 13.9* % | showed the ability to inhibit |  | 23.0* % | showed the ability to inhibit |  |  |
| [→3)-β-GalNAc4,6S-(1→4)β-GlcA-[(3→1)Y]-(1→]n, where Y=α-Fuc2,4S (96%) or α-Fuc4S (4%) [IbFucCS] |  | 7.6* % | showed the ability to inhibit | 91.5% and 86.1% | 20.1* % | showed the ability to inhibit | 79.9% and 77% | inhibitory activity against SARS-CoV-2 wild-type (in words) [4]: showed inhibitory activity; inhibitory activity against SARS-CoV-2 Delta (in words) [5]: showed inhibitory activity |
| chondroitin sulfate [CS] |  |  |  |  |  |  |  | binding of GAG chip to MPXV A35 protein (in words) [6]: neither CS nor DS showed binding |
| chondroitin-4,6-sulfate [CSE] |  |  |  |  |  |  |  | ka [7]: 4858 M⁻¹ s⁻¹; kd [7]: 1.5 × 10^−3 (±4.7 × 10^−5) s^−1 |
| chondroitin-4-sulfate [CSA] |  |  |  |  |  |  |  | ka [7]: 3730 M⁻¹ s⁻¹; kd [7]: 3.2 × 10^−3 (±5.4 × 10^−5) s^−1 |
| dermatan sulfate [DS] |  |  |  |  |  |  |  | ka [7]: 4487 M⁻¹ s⁻¹; kd [7]: 2.8 × 10^−3 (±2.6 × 10^−5) s^−1; binding of GAG chip to MPXV A35 protein (in words) [6]: neither CS nor DS showed binding |
| heparin |  | 43.3* % |  | 60% | 27.7* % |  | 72% | kd [7]: 7.1 × 10^−3 (±5.0 × 10^−5) s^−1; Kd ([7]; read-out: KD heparin-A29 interaction): 250 nM; binding between MPXV L1R protein and heparin (in words) [8]: essentially no binding; ka [6]: 1.8 × 10^3 M^−1S^−1; Kd ([6]; read-out: KD heparin-A35 interaction): 220 nM; inhibition of MPXV A29 binding to surface-immobilized heparin [1]: 30% |
| mucopolysaccharide polysulfate [MPS] | strongest inhibition |  |  |  |  |  |  | inhibition of MPXV A29 binding to surface-immobilized heparin [1]: 69% |
| pentosan polysulfate [PPS] | strongest inhibition |  |  |  |  |  |  | inhibition of MPXV A29 binding to surface-immobilized heparin [1]: 62% |
